Assay results published in ChEMBL document CHEMBL3580659, “One-pot multicomponent synthesis of indole incorporated thiazolylcoumarins and their antibacterial, anticancer and DNA cleavage studies” (2015).

Tests used:
Type in all cases: functional
RXF 393 = assay: Cytotoxicity against human RXF393 cells after 48 hrs by sulforhodamine B assay; settings: RXF 393, 48 h
MDA-MB-468 = assay: Cytotoxicity against human MDA-MB-468 cells assessed as cell growth level at 100 nM after 48 hrs by sulforhodamine B assay
[1] = Cytotoxicity against human Hs 578T cells after 48 hrs by sulforhodamine B assay
NCI-H322M [2] = assay: Cytotoxicity against human NCI-H322M cells assessed as cell growth level at 100 nM after 48 hrs by sulforhodamine B assay
NCI-H522 [3] = assay: Cytotoxicity against human NCI-H522 cells after 48 hrs by sulforhodamine B assay; settings: NCI-H522, 48 h
A498 = assay: Cytotoxicity against human A498 cells assessed as cell growth level at 10 nM after 48 hrs by sulforhodamine B assay
KM12 = assay: Cytotoxicity against human KM12 cells assessed as cell growth level at 10 nM after 48 hrs by sulforhodamine B assay
SK-MEL-5 = assay: Cytotoxicity against human SK-MEL-5 cells assessed as cell growth level at 10 uM after 48 hrs by sulforhodamine B assay
HOP-92 [4] = assay: Cytotoxicity against human HOP92 cells assessed as cell growth level at 10 nM after 48 hrs by sulforhodamine B assay
SK-MEL-28 = assay: Cytotoxicity against human SK-MEL-28 cells assessed as cell growth level at 10 nM after 48 hrs by sulforhodamine B assay
IGROV-1 [5] = assay: Cytotoxicity against human IGROV1 cells assessed as cell growth level at 100 nM after 48 hrs by sulforhodamine B assay
M14 [6] = assay: Cytotoxicity against human M14 cells assessed as cell growth level at 100 uM after 48 hrs by sulforhodamine B assay
DU-145 = assay: Cytotoxicity against human DU145 cells assessed as cell growth level at 100 nM after 48 hrs by sulforhodamine B assay
IGROV-1 [7] = assay: Cytotoxicity against human IGROV1 cells assessed as cell growth level at 100 uM after 48 hrs by sulforhodamine B assay
MDA-MB-231 = assay: Cytotoxicity against human MDA-MB-231/ATCC cells assessed as cell growth level at 1 uM after 48 hrs by sulforhodamine B assay
UACC-257 = assay: Cytotoxicity against human UACC257 cells assessed as cell growth level at 100 nM after 48 hrs by sulforhodamine B assay
M14 [8] = assay: Cytotoxicity against human M14 cells assessed as cell growth level at 1 uM after 48 hrs by sulforhodamine B assay
A549 = assay: Cytotoxicity against human A549/ATCC cells assessed as cell growth level at 10 uM after 48 hrs by sulforhodamine B assay
NCI-H322M [9] = assay: Cytotoxicity against human NCI-H322M cells assessed as cell growth level at 10 uM after 48 hrs by sulforhodamine B assay
HCT-15 = assay: Cytotoxicity against human HCT15 cells assessed as cell growth level at 100 uM after 48 hrs by sulforhodamine B assay
SNB-75 = assay: Cytotoxicity against human SNB75 cells assessed as cell growth level at 100 nM after 48 hrs by sulforhodamine B assay
BT-549 = assay: Cytotoxicity against human BT549 cells assessed as cell growth level at 1 uM after 48 hrs by sulforhodamine B assay
NCI-H226 [10] = assay: Cytotoxicity against human NCI-H226 cells assessed as cell growth level at 10 nM after 48 hrs by sulforhodamine B assay
786-0 = assay: Cytotoxicity against human 786-0 cells assessed as cell growth level at 1 uM after 48 hrs by sulforhodamine B assay
SF-295 = assay: Cytotoxicity against human SF295 cells assessed as cell growth level at 1 uM after 48 hrs by sulforhodamine B assay
Malme-3M [11] = assay: Cytotoxicity against human MALME-3M cells after 48 hrs by sulforhodamine B assay
U-251 = assay: Cytotoxicity against human U251 cells assessed as cell growth level at 10 uM after 48 hrs by sulforhodamine B assay
ACHN = assay: Cytotoxicity against human ACHN cells assessed as cell growth level at 100 nM after 48 hrs by sulforhodamine B assay
NCI-H226 [12] = assay: Cytotoxicity against human NCI-H226 cells assessed as cell growth level at 1 uM after 48 hrs by sulforhodamine B assay
CAKI-1 = assay: Cytotoxicity against human CAKI-1 cells assessed as cell growth level at 1 uM after 48 hrs by sulforhodamine B assay
CCRF-CEM [13] = assay: Cytotoxicity against human CCRF-CEM cells assessed as cell growth level at 100 uM after 48 hrs by sulforhodamine B assay
OVCAR-5 = assay: Cytotoxicity against human OVCAR5 cells assessed as cell growth level at 1 uM after 48 hrs by sulforhodamine B assay
Malme-3M [14] = assay: Cytotoxicity against human MALME-3M cells assessed as cell growth level at 10 nM after 48 hrs by sulforhodamine B assay
SN12C = assay: Cytotoxicity against human SN12C cells assessed as cell growth level at 1 uM after 48 hrs by sulforhodamine B assay
CCRF-CEM [15] = assay: Cytotoxicity against human CCRF-CEM cells assessed as cell growth level at 10 nM after 48 hrs by sulforhodamine B assay
HOP-92 [16] = assay: Cytotoxicity against human HOP92 cells assessed as cell growth level at 1 uM after 48 hrs by sulforhodamine B assay
NCI-H23 = assay: Cytotoxicity against human NCI-H23 cells assessed as cell growth level at 10 uM after 48 hrs by sulforhodamine B assay
Malme-3M [17] = assay: Cytotoxicity against human MALME-3M cells assessed as cell growth level at 100 nM after 48 hrs by sulforhodamine B assay
NCI-H522 [18] = assay: Cytotoxicity against human NCI-H522 cells assessed as cell growth level at 100 nM after 48 hrs by sulforhodamine B assay
HT-29 = assay: Cytotoxicity against human HT-29 cells after 48 hrs by sulforhodamine B assay; settings: HT-29, 48 h
[19] = read-out: LC50 (the source's name)
[20] = read-out: pLC50 (the source's name) (converted)

`O=c1oc2ccccc2cc1-c1csc(N/N=C/c2c[nH]c3ccccc23)n1` gave a GI50 (RXF 393; read-out: GI50) of 1.97 µM, a CC50 (RXF 393; [19]) of 33.9 µM and a TGI (RXF 393; read-out: TGI) of 4.77 µM. For the same compound, the GI50 (RXF 393; read-out: pGI50 (converted)) was 1.95 µM, the CC50 (RXF 393; [20]) was 33.9 µM and the TGI (RXF 393; read-out: pTGI (converted)) was 4.79 µM. For the same compound, the Activity (MDA-MB-468) was 83%, the GI50 ([1]; read-out: GI50) was 3.2 µM and the CC50 [1, 19] was over 100 µM. The TGI ([1]; read-out: TGI) was 58.9 µM, the GI50 ([1]; read-out: pGI50 (converted)) was 3.16 µM and the CC50 [1, 20] was over 100 µM. It also gave a TGI ([1]; read-out: pTGI (converted)) of 58.9 µM, an Activity (NCI-H322M [2]) of 102% and a GI50 (NCI-H522 [3]; read-out: GI50) of 1.03 µM. For the same compound, the LC50 (50% lethal concentration) (NCI-H522 [3]; read-out: LC50) was 4.96 µM, the TGI (NCI-H522 [3]; read-out: TGI) was 2.26 µM and the GI50 (NCI-H522 [3]; read-out: pGI50 (converted)) was 1.02 µM. It also gave an LC50 (50% lethal concentration) (NCI-H522 [3]; read-out: pLC50 (converted)) of 5.01 µM, a TGI (NCI-H522 [3]; read-out: pTGI (converted)) of 2.24 µM and an Activity (A498) of 95%. The Activity (KM12) was 99%, the Activity (SK-MEL-5) was 69.78% and the Activity (HOP-92 [4]) was 100%. The Activity (SK-MEL-28) was 94%, the Activity (IGROV-1 [5]) was 107% and the Activity (M14 [6]) was -77%. For the same compound, the Activity (DU-145) was 92%, the Activity (IGROV-1 [7]) was -71% and the Activity (MDA-MB-231) was 92%. For the same compound, the Activity (UACC-257) was 88%, the Activity (M14 [8]) was 89% and the Activity (A549) was -30.98%. It also gave an Activity (NCI-H322M [9]) of 15.29%, an Activity (HCT-15) of -48% and an Activity (SNB-75) of 90%. For the same compound, the Activity (BT-549) was 58%, the Activity (NCI-H226 [10]) was 98% and the Activity (786-0) was 80%. The Activity (SF-295) was 80%, the GI50 (Malme-3M [11]; read-out: GI50) was 1.59 µM and the CC50 (Malme-3M [11]; [19]) was over 100 µM. For the same compound, the TGI (Malme-3M [11]; read-out: TGI) was 4.17 µM, the GI50 (Malme-3M [11]; read-out: pGI50 (converted)) was 1.58 µM and the CC50 (Malme-3M [11]; [20]) was over 100 µM. The TGI (Malme-3M [11]; read-out: pTGI (converted)) was 4.17 µM, the Activity (U-251) was -6.38% and the Activity (ACHN) was 97%. The Activity (NCI-H226 [12]) was 101%, the Activity (CAKI-1) was 88% and the Activity (CCRF-CEM [13]) was -39%. The Activity (OVCAR-5) was 87%, the Activity (Malme-3M [14]) was 100% and the Activity (SN12C) was 45%. The Activity (CCRF-CEM [15]) was 100%, the Activity (HOP-92 [16]) was 87% and the Activity (NCI-H23) was 25.93%. It also gave an Activity (Malme-3M [17]) of 94%, an Activity (NCI-H522 [18]) of 107% and a GI50 (HT-29; read-out: GI50) of 2.01 µM. For the same compound, the CC50 (HT-29; [19]) was over 100 µM, the TGI (HT-29; read-out: TGI) was 5.55 µM and the GI50 (HT-29; read-out: pGI50 (converted)) was 2 µM. For the same compound, the CC50 (HT-29; [20]) was over 100 µM and the TGI (HT-29; read-out: pTGI (converted)) was 5.5 µM.
